Data: ChEMBL document CHEMBL5241098, “Progress in the development of small molecular inhibitors of the Bruton's tyrosine kinase (BTK) as a promising cancer therapy” (Bioorg Med Chem, 2021)
Blank lines part the entries; values can stand above or below the molecule they belong to.

How the values were obtained:
Raji = experiment: Antiproliferative activity against human Raji cells assessed as reduction in cell viability incubated for 72 hrs by CCK-8 assay
Ramos [1] = experiment: Antiproliferative activity against human Ramos cells assessed as reduction in cell viability incubated for 72 hrs by CCK-8 assay
NAMALVA = experiment: Antiproliferative activity against human NAMALVA cells assessed as reduction in cell viability incubated for 72 hrs by CCK-8 assay
[2] = target: T1, Tyrosine-protein kinase BTK (Homo sapiens, UniProt Q06187); experiment: Inhibition of BTK (unknown origin) in the presence of ATP
T1 sequence (Q06187 whole entry): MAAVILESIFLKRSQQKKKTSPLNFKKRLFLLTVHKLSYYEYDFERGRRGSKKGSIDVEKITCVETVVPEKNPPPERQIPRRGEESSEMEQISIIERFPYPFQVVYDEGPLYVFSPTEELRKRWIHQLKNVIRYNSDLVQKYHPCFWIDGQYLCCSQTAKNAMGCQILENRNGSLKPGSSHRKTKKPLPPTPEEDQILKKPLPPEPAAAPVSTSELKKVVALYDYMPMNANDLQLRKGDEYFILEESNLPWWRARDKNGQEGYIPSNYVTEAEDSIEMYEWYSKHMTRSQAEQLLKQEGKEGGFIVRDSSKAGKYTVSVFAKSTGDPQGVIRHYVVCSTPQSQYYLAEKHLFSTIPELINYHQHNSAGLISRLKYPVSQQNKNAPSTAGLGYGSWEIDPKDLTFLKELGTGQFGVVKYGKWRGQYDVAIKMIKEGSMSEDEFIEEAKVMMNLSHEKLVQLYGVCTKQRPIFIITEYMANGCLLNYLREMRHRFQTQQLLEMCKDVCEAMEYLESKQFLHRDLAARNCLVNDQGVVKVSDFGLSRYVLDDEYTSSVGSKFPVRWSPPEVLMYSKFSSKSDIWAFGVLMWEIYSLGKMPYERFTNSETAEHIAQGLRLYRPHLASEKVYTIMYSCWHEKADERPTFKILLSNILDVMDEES

[3] = target: T2, Protein cereblon/Tyrosine-protein kinase BTK (Homo sapiens, UniProt Q06187+Q96SW2); experiment: PROTAC activity at CRBN/BTK in human MINO cells assessed as decrease in BTK level incubated for 24 hrs by Western blot analysis; type: cell-based
Target sequence in this assay (Q06187 whole entry): as above
Target sequence in this assay (Q96SW2 whole entry): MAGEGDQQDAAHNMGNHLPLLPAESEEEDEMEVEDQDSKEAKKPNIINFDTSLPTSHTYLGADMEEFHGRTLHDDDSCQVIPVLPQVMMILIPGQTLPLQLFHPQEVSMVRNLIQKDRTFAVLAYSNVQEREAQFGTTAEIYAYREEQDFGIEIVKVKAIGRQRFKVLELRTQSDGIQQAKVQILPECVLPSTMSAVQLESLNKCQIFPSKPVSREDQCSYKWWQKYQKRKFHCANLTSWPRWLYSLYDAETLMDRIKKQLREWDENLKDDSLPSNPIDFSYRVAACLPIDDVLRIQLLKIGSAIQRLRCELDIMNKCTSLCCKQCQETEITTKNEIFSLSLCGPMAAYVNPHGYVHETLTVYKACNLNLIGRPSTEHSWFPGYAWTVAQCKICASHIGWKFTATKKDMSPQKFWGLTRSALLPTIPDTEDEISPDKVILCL

[4] = target: T2, Protein cereblon/Tyrosine-protein kinase BTK; experiment: PROTAC activity at CRBN/BTK in human MINO cells assessed as decrease in BTK level by measuring maximal efficacy incubated for 24 hrs by Western blot analysis relative to control; type: cell-based
Target sequence in this assay (Q06187 2-659 limits assumed): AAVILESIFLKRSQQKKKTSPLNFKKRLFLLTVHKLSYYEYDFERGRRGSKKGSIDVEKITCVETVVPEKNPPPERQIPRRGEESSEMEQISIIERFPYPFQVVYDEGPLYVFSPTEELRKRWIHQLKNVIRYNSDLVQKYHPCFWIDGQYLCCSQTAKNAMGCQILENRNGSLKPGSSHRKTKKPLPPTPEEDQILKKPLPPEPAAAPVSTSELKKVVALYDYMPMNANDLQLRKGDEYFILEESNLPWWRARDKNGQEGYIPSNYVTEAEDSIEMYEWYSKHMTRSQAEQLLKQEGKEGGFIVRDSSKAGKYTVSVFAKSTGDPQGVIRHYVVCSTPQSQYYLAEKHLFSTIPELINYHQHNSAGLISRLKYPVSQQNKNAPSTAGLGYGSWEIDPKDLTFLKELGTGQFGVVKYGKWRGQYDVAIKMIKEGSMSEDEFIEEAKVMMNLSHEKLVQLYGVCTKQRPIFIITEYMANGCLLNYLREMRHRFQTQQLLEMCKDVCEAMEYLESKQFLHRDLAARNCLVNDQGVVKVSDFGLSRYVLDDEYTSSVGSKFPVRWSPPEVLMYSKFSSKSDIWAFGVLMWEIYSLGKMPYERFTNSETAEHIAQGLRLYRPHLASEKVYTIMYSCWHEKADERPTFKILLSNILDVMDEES
Target sequence in this assay (Q96SW2 whole entry partner): as the sequence (Q96SW2 whole entry) above

[5] = Inhibition of CDK2/Cyclin E (unknown origin) in the presence of ATP; parameters: species or system Homo sapiens
JeKo-1 = experiment: Antiproliferative activity against BTK knockout human JeKo-1 cells assessed as reduction in cell viability incubated for 72 hrs by CellTiter Glo luminescence assay; settings: JeKo-1, 72 h
Z-138 = experiment: Antiproliferative activity against human Z138 cells assessed as reduction in cell viability incubated for 72 hrs by CellTiter Glo luminescence assay; settings: Z-138, 72 h
Maver1 = experiment: Antiproliferative activity against human MAVER-1 cells assessed as reduction in cell viability incubated for 72 hrs by CellTiter Glo luminescence assay; settings: Maver1, 72 h
[6] = target: E3 ubiquitin-protein ligase XIAP/Tyrosine-protein kinase BTK (Homo sapiens, UniProt P98170+Q06187); experiment: PROTAC activity at IAP/BTK in human THP-1 cells assessed as reduction in BTK level incubated for 16 hrs by immunoblot analysis; type: cell-based
Chain of E3 ubiquitin-protein ligase XIAP/Tyrosine-protein kinase BTK (P98170 whole entry): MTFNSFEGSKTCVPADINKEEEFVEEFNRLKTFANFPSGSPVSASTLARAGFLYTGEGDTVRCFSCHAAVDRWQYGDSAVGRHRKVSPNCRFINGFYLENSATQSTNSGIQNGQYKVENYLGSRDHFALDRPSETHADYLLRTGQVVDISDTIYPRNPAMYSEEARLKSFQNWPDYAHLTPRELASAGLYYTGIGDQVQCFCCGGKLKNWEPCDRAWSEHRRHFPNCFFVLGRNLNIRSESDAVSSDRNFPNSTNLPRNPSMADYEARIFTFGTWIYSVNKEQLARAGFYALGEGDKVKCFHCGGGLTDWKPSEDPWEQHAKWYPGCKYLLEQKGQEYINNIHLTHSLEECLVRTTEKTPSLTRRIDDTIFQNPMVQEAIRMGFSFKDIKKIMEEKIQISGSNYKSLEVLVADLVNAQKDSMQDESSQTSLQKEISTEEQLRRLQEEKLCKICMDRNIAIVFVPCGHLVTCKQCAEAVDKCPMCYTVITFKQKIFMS
Chain of E3 ubiquitin-protein ligase XIAP/Tyrosine-protein kinase BTK (Q06187 whole entry): as the sequence (Q06187 whole entry) above

[7] = target: T3, Protein cereblon/Tyrosine-protein kinase BTK (Homo sapiens, UniProt Q06187+Q96SW2, C481S); experiment: PROTAC activity at CRBN/BTK C481S mutant in human HBL1 cells assessed as decrease in BTK C481S level incubated for 36 hrs by Western blot analysis; type: cell-based
T3 sequence (Q06187 2-659 C481S limits assumed, stated change not applied): as the sequence (Q06187 2-659 limits assumed) above, with C480S counted along it
T3 sequence (Q96SW2 whole entry, stated change not applied): as the sequence (Q96SW2 whole entry) above

[8] = target: T1, Tyrosine-protein kinase BTK; experiment: Competitive inhibition of recombinant human BTK incubated for 10 mins in the presence of ATP by mobility shift assay
OCI-Ly10 = experiment: Antiproliferative activity against human OCILY10 cells assessed as inhibition of cell growth
[9] = Antiproliferative activity against human MINO cells assessed as inhibition of cell growth
A549 = experiment: Antiproliferative activity against human A549 cells assessed as inhibition of cell growth
[10] = target: T1, Tyrosine-protein kinase BTK; experiment: Inhibition of BTK (unknown origin) incubated for 40 mins in the presence of ATP by scintillation based radiometric protein kinase assay
[11] = Antiproliferative activity against human MINO cells assessed as reduction in cell viability incubated for 72 hrs by CellTiter Glo luminescence assay
[12] = target: T1, Tyrosine-protein kinase BTK; experiment: Inhibition of BTK (unknown origin)
[13] = target: T4, Tyrosine-protein kinase JAK3 (Homo sapiens, UniProt P52333); experiment: Inhibition of JAK3 (unknown origin)
T4 sequence (P52333 whole entry): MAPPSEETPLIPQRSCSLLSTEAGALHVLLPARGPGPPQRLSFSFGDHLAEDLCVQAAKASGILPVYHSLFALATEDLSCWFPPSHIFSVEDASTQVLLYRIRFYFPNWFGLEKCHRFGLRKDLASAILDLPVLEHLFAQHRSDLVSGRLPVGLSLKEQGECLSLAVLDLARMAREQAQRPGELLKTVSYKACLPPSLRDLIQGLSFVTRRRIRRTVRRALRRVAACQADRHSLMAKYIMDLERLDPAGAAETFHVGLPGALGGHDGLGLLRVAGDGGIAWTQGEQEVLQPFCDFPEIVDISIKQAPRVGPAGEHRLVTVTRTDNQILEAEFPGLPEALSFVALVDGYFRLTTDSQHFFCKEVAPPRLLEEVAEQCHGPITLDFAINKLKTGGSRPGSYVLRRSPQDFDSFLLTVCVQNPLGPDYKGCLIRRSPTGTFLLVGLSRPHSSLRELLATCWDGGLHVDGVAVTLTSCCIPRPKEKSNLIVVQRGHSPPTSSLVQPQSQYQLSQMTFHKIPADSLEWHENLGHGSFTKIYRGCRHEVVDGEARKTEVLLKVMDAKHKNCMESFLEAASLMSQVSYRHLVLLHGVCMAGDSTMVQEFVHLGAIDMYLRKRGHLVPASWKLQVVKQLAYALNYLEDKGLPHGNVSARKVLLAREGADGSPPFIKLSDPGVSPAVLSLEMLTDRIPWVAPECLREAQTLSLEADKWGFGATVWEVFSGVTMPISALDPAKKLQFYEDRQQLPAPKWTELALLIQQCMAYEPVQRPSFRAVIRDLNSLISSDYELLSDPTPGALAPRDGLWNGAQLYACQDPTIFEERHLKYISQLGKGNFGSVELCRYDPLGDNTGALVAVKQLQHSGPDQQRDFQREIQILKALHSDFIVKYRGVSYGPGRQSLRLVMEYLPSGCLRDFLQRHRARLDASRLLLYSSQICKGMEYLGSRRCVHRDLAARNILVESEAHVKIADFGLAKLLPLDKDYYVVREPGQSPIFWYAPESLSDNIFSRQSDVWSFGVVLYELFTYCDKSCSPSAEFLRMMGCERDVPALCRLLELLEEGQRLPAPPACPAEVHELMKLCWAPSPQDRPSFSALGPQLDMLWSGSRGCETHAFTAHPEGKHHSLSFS

[14] = target: Epidermal growth factor receptor (Homo sapiens, UniProt P00533); experiment: Inhibition of EGFR (unknown origin)
Chain of Epidermal growth factor receptor (P00533 whole entry): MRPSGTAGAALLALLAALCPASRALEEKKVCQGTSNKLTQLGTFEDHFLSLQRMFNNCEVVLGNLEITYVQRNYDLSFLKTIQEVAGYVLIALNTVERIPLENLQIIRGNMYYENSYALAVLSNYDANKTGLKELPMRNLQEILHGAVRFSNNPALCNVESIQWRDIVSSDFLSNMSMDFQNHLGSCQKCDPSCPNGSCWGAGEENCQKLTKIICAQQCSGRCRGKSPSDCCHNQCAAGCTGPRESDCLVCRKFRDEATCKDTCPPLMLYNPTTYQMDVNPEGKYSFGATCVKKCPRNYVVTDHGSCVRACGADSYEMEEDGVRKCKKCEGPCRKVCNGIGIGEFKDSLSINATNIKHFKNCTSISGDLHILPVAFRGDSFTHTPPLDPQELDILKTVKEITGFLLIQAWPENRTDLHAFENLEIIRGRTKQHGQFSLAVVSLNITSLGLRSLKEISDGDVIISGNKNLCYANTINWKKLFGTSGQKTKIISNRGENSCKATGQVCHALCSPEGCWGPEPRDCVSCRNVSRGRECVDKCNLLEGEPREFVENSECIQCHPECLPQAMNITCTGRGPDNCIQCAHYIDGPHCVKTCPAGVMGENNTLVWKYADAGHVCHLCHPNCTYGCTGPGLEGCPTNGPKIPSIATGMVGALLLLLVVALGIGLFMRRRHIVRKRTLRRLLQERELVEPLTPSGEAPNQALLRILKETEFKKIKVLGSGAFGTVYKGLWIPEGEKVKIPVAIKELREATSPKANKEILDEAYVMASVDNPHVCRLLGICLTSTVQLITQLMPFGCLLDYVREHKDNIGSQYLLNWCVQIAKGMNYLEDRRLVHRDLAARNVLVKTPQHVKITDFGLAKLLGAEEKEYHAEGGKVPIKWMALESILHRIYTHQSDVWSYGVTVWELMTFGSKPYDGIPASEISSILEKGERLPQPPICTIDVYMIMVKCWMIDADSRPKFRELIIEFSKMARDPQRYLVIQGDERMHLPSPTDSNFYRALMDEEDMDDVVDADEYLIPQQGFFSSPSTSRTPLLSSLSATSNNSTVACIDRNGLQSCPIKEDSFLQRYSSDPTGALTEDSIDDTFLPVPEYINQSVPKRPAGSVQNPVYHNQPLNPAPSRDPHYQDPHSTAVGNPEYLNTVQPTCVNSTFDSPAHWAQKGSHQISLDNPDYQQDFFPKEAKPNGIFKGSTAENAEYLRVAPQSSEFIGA

U2932 = experiment: Growth inhibition of human U2932 cells; type: functional
Ramos [15] = experiment: Growth inhibition of human Ramos cells; type: functional
[16] = target: T5, Receptor-type tyrosine-protein kinase FLT3 (Homo sapiens, UniProt P36888); experiment: Inhibition of FLT3 (unknown origin)
T5 sequence (P36888 whole entry): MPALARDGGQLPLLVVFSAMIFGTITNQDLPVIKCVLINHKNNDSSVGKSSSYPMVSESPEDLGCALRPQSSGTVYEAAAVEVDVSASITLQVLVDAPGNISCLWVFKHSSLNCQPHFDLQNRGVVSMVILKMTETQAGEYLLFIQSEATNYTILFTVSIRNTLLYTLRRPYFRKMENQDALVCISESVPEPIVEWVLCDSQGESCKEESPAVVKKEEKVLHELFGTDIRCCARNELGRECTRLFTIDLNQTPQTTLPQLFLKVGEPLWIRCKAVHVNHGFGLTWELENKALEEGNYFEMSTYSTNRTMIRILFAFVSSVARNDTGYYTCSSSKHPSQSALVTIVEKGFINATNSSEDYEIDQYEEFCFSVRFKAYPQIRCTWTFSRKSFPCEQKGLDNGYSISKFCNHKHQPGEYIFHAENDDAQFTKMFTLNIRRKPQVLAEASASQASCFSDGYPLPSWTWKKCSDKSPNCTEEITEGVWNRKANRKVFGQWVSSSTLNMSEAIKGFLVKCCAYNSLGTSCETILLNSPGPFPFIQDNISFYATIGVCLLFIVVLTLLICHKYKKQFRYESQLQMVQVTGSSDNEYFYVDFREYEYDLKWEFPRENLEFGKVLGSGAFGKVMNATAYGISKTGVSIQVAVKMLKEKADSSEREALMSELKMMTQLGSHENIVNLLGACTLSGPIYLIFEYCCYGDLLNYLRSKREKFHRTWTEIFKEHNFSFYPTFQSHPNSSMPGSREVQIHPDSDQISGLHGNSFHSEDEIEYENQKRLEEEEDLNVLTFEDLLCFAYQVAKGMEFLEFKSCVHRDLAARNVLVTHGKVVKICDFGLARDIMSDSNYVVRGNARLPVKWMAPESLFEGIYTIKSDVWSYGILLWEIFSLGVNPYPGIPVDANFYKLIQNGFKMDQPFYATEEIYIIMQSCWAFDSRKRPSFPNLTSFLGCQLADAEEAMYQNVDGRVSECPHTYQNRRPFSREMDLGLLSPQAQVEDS

[17] = target: Tyrosine-protein kinase Lck (Homo sapiens, UniProt P06239); experiment: Inhibition of LCK (unknown origin)
Chain of Tyrosine-protein kinase Lck (P06239 whole entry): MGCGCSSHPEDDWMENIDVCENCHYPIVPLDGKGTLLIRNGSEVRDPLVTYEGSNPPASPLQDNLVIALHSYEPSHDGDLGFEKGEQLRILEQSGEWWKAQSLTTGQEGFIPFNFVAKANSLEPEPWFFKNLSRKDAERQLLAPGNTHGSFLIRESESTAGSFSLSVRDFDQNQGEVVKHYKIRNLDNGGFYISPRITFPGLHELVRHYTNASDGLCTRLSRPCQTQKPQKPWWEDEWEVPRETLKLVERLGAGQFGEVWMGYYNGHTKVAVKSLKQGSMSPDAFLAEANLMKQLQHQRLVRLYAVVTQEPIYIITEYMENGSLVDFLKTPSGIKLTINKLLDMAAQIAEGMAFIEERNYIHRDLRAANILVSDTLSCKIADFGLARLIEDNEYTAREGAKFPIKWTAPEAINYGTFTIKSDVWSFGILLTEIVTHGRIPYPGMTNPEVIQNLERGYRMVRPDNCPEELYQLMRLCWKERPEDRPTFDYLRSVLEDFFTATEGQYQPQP

[18] = target: T3, Protein cereblon/Tyrosine-protein kinase BTK; experiment: PROTAC activity at CRBN/BTK C481S mutant in human Ramos cells assessed as decrease in BTK C481S level incubated for 48 hrs by immunoblot analysis; type: cell-based
[19] = target: T2, Protein cereblon/Tyrosine-protein kinase BTK; experiment: PROTAC activity at CRBN/BTK in human NAMALVA cells assessed as decrease in BTK level incubated for 24 hrs by Western blot analysis; type: cell-based
Target sequence in this assay (Q06187 whole entry): as the sequence (Q06187 whole entry) above
Target sequence in this assay (Q96SW2 whole entry): as the sequence (Q96SW2 whole entry) above

[20] = target: T2, Protein cereblon/Tyrosine-protein kinase BTK; experiment: PROTAC activity at CRBN/BTK in human NAMALVA cells assessed as decrease in BTK level by measuring maximal efficacy incubated for 24 hrs by Western blot analysis relative to control; type: cell-based
Target sequence in this assay (Q06187 2-659 limits assumed): as the sequence (Q06187 2-659 limits assumed) above
Target sequence in this assay (Q96SW2 whole entry partner): as the sequence (Q96SW2 whole entry) above

OCI-Ly7 = experiment: Growth inhibition of human OCILY7 cells; type: functional

IC50 (Raji): 4.37 µM
IC50 (Ramos [1]): 9.25 µM
Compound: C=CC(=O)Nc1cccc(Nc2nc(Nc3ccc(Cn4cc(C)nc4CC)cc3)ncc2F)c1
IC50 (NAMALVA): 4.95 µM

IC50 [2]: 1.3 µM
Compound: CN1CCN(c2ccc(Nc3nc(Nc4ccc(F)cc4)c4ncn(CC5CC5)c4n3)cc2)CC1

IC50 (Raji): 7.98 µM
IC50 (Ramos [1]): 10.8 µM
Compound: C=CC(=O)Nc1cccc(Nc2nc(Nc3ccc(Cn4cc(C)nc4CC)cc3)ncc2Cl)c1
IC50 (NAMALVA): 4.9 µM

EC50 [3]: 0.01 µM
Emax [4]: 90%
Compound: Nc1ncnc2c1c(-c1ccc(Oc3ccccc3)cc1)nn2C1CCCN(C(=O)/C=C/CCCCCOCCOCCOCCOCCOc2cccc3c2C(=O)N(C2CCC(=O)NC2=O)C3=O)C1 (stereo not drawn)

IC50 [5]: 18.5 µM
Compound: CN1CCN(c2ccc(Nc3nc(Nc4ccc(F)c(F)c4)c4ncn(CC5CC5)c4n3)cc2)CC1

Compound: Nc1ncnc2c1c(-c1ccc(Oc3ccccc3)cc1)nn2Cc1cccc(NC(=O)CCl)c1
IC50 (JeKo-1): 0.4 µM
IC50 (Z-138): 0.8 µM
IC50 (Maver1): 0.4 µM

Compound: CN[C@H](C)C(=O)N[C@@H](C(=O)N1C[C@@H](NC(=O)COCCOCCOCCOCCN2CCN(CCCC(=O)N3CCCC(n4nc(-c5ccc(Oc6ccccc6)cc5)c5c(N)ncnc54)C3)CC2)C[C@H]1C(=O)N[C@@H]1CCCc2ccccc21)C1CCCCC1 (stereo partly drawn)
EC50 [6]: 0.2 µM

IC50 [2]: 0.66 µM
Compound: CN1CCN(c2ccc(Nc3nc(Nc4cccc(F)c4)c4ncn(CC5CC5)c4n3)cc2)CC1

EC50 [3]: 0.01 µM
Emax [4]: 90%
Compound: C#C/C(=C\C(C)(C)CCCCOCCOCCOCCOCCOc1cccc2c1C(=O)N(C1CCC(=O)NC1=O)C2=O)C(=O)N1CCCC(n2nc(-c3ccc(Oc4ccccc4)cc3)c3c(N)ncnc32)C1 (stereo not drawn)

IC50 [2]: 0.9 µM
Compound: CN1CCN(c2ccc(Nc3nc(Nc4ccccc4)c4ncn(CC5CC5)c4n3)cc2)CC1

Compound: Nc1ncnc2c1c(-c1ccc(Oc3ccccc3)cc1)nn2C1CCCN(C(=O)c2cn(CCOCCOCCOCCCc3cccc4c3CN(C3CCC(=O)NC3=O)C4=O)nn2)C1 (stereo not drawn)
EC50 [7]: 0.029 µM

EC50 [3]: 0.0022 µM
Emax [4]: 97%
Compound: Nc1ncnc2c1c(-c1ccc(Oc3ccccc3)cc1)nn2C1CCCN(C(=O)CCCCCCCOCCOCCOCCOCCOc2cccc3c2C(=O)N(C2CCC(=O)NC2=O)C3=O)C1 (stereo not drawn)

IC50 [8]: 0.0025 µM
IC50 (OCI-Ly10): 0.2 µM
IC50 (A549): 3.89 µM
Compound: C=C(Cl)C(=O)N1CCC(n2nc(-c3ccc(Oc4ccccc4)cc3)c3c(N)ncnc32)CC1
IC50 [9]: 0.56 µM

IC50 [10]: 0.05 µM
Compound: C=CC(=O)Nc1cccc(Cn2nc(-c3ccc(Oc4ccccc4)cc3)c3c(N)ncnc32)c1
IC50 [11]: 1.3 µM
IC50 (JeKo-1): 1.3 µM
IC50 (Z-138): 2.8 µM
IC50 (Maver1): 2.6 µM

IC50 [12]: 0.00659 µM
IC50 [13]: 5.18 µM
IC50 [14]: 4.31 µM
GI50 (Ramos [15]): 0.37 µM
Compound: C=CC(=O)N1CCc2ccc(N3C(=O)CCc4cnc5ccc(-c6cnn(C)c6)cc5c43)cc21
GI50 (U2932): 0.2 µM

IC50 [16]: 0.08 µM
Compound: Cc1cnc(-c2ccc(-c3ccc(NC(=O)Nc4cccc(C(F)(F)F)c4)cc3F)c3c2C(=O)NC3)[nH]1

IC50 [17]: 0.0039 µM
Compound: O=C(c1ccc(Oc2ccccc2)cc1Cl)c1c[nH]c2ncnc(NC3CC[C@@H](CO)OC3)c12 (stereo partly drawn)

IC50 [2]: 1.81 µM
Compound: CN1CCN(c2ccc(Nc3nc(Nc4cccc(F)c4)c4ncn(CC5CC5)c4n3)cc2F)CC1

Compound: Nc1ncnc2c1c(-c1ccc(Oc3ccccc3)cc1)nn2[C@@H]1CCCN(C(=O)c2cn(CCOCCOCCOCCNc3cccc4c3C(=O)N(C3CCC(=O)NC3=O)C4=O)nn2)C1 (stereo partly drawn)
EC50 [18]: 0.03 µM

EC50 [19]: 0.0062 µM
Emax [20]: > 99%
Compound: Nc1ncnc2c1c(-c1ccc(Oc3ccccc3)cc1)nn2C1CCN(CCOCCOCC(=O)Nc2ccc3c(c2)C(=O)N(C2CCC(=O)NC2=O)C3=O)CC1 (stereo not drawn)

IC50 [10]: 0.039 µM
Compound: Nc1ncnc2c1c(-c1ccc(Oc3ccccc3)cc1)nn2Cc1ccccc1F
IC50 [11]: 11.1 µM
IC50 (JeKo-1): 32.9 µM
IC50 (Z-138): 43.7 µM
IC50 (Maver1): 34.3 µM

Compound: Nc1ncnc2c1c(-c1ccc(Oc3ccccc3)nc1)nn2C1CCCN(C(=O)CCl)C1 (stereo not drawn)
IC50 (JeKo-1): 0.4 µM
IC50 (Maver1): 0.4 µM

IC50 [12]: < 0.005 µM
GI50 (OCI-Ly7): 0.22 µM
Compound: C=CC(=O)NCC(=O)Nc1ncc(NC(=O)c2cc(C)cc(NC(=O)c3cccc(C)c3)c2)cn1

Compound: Nc1cccc(Cn2nc(-c3ccc(Oc4ccccc4)cc3)c3c(N)ncnc32)c1
IC50 (JeKo-1): 11.2 µM
IC50 (Z-138): 14.2 µM
IC50 (Maver1): 16.8 µM
